Experimental data taken from ChEMBL document CHEMBL1909046, “DrugMatrix in vitro pharmacology data”.

Columns and labels:
[1] = biological target: T1, Type-2 angiotensin II receptor (Homo sapiens, UniProt P50052); assay type: cell-based; settings: cho-k1; note: in other assays of this panel Not Active means under 50% inhibition at 10 µM
T1 sequence (P50052 whole entry): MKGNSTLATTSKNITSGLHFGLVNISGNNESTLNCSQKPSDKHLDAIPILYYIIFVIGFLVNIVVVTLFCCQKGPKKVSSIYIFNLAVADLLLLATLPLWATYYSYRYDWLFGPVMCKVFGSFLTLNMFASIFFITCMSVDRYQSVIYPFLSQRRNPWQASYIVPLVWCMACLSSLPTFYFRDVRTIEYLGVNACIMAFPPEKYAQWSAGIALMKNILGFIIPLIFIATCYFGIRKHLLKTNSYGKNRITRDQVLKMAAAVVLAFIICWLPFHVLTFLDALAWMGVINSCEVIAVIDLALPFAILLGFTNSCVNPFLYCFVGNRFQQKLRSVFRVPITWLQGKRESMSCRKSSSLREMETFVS

[2] = biological target: T2, C-X-C chemokine receptor type 2 (Homo sapiens, UniProt P25025); assay type: cell membranes, Membrane; settings: cho-k1; note: in other assays of this panel Not Active means under 50% inhibition at 10 µM
T2 sequence (P25025 whole entry): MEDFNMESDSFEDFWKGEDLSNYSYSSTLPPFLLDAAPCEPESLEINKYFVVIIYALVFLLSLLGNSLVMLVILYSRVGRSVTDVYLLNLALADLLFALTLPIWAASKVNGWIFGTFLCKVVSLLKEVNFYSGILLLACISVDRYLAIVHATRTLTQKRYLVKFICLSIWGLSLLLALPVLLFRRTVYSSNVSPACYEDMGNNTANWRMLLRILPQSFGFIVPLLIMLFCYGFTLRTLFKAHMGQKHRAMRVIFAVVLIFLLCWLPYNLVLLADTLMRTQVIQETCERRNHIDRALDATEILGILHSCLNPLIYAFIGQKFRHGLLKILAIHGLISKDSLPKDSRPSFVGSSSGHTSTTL

[3] = biological target: T3, Nitric oxide synthase, inducible (Mus musculus, UniProt P29477); set-up: species or system Escherichia coli;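 note: inhibition of iNOS enzyme activity measured with L-arginine as substrate; in other assays of this panel Not Active means under 50% inhibition at 10 µM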
T3 sequence (P29477 whole entry): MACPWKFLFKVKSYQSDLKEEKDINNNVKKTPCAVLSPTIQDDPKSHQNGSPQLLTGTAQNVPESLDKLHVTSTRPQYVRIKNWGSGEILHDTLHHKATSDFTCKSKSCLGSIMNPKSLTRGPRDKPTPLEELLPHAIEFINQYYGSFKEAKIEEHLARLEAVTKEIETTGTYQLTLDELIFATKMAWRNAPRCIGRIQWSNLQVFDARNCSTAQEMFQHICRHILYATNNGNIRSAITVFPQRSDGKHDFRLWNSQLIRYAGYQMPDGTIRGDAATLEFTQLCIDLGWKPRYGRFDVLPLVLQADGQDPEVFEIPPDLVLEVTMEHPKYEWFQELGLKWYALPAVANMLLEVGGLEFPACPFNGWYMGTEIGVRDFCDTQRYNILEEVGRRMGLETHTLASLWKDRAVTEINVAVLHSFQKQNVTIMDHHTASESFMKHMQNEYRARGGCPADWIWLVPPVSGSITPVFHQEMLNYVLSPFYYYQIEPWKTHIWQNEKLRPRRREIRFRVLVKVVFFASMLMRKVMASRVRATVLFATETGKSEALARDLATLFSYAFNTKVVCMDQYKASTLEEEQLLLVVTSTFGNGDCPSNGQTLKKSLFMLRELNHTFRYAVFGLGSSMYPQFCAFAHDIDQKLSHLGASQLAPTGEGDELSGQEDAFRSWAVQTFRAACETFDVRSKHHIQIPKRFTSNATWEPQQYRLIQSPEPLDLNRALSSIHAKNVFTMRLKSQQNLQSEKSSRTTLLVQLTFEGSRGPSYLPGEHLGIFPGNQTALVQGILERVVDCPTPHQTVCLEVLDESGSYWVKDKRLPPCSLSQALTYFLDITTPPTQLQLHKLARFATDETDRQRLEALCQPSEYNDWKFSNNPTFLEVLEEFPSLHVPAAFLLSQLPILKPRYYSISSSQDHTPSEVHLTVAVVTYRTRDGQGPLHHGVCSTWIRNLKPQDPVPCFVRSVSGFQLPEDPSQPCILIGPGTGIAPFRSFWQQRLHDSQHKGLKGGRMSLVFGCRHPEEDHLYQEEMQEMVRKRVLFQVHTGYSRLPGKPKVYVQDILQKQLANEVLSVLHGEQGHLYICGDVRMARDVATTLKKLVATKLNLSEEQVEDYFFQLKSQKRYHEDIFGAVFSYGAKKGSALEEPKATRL

[4] = biological target: T4, Progesterone receptor (Bos taurus, UniProt Q690N0); experiment: DRUGMATRIX: Progesterone radioligand binding (ligand: [3H] R-5020); assay type: tissue-based, Uterus; settings: Not Active = under 50% inhibition at 10 µM
T4 sequence (Q690N0 whole entry): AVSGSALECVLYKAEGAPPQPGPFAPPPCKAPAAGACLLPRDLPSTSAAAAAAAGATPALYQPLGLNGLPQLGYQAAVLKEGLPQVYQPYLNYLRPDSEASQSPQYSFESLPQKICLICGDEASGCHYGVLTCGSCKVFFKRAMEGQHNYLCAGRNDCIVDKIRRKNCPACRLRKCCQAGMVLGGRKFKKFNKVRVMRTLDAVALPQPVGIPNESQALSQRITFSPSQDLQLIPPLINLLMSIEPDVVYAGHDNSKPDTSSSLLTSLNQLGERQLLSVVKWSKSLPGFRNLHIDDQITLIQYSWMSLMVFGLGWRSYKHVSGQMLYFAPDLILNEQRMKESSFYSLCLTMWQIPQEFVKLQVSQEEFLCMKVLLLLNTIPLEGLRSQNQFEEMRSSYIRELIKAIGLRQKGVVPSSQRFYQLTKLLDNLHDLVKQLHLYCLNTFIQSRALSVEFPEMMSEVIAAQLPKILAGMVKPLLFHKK

[5] = biological target: T5, Neuropeptide Y receptor type 1 (Homo sapiens, UniProt P25929); assay type: cell membranes, Membrane; settings: sk-n-mc; note: in other assays of this panel Not Active means under 50% inhibition at 10 µM
T5 sequence (P25929 whole entry): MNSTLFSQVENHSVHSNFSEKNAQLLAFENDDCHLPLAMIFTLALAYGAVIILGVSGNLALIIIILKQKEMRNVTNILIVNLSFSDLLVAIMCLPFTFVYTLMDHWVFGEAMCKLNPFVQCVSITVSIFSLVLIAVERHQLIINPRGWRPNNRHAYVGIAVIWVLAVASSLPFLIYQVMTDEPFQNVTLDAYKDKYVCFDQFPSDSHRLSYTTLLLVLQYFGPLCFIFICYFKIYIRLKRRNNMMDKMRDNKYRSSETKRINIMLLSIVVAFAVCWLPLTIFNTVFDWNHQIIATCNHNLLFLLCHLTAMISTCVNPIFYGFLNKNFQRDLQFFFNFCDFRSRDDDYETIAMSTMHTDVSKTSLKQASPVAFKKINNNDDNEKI

[6] = biological target: Beta-2 adrenergic receptor (Homo sapiens, UniProt P07550); experiment: DRUGMATRIX: Adrenergic beta2 radioligand binding (ligand: [3H] CGP-12177); assay type: cell membranes, CHO, Membrane; settings: Not Active = under 50% inhibition at 10 µM
[7] = biological target: Glycine receptor (Rattus norvegicus, UniProt P22771+P24524+P07727+P20781); assay type: cell membranes, Wistar, Spinal cord, Membrane; note: in other assays of this panel Not Active means under 50% inhibition at 10 µM

Row | Compound | IC50 [1] | IC50 [2] | IC50 [3] | IC50 [4] | IC50 [5] | IC50 ([6]; cho) | IC50 [7] | IC50 ([4]; read-out: IC50) | Ki ([4]; read-out: Ki) | Ki [1] | IC50 ([6]; read-out: IC50) | Ki ([6]; read-out: Ki) | Ki [2] | Ki [3] | Ki [4] | Ki [5] | Ki ([6]; cho) | Ki [7]
1 | CO[C@H]1C[C@@H]2CC[C@@H](C)[C@@](O)(O2)C(=O)C(=O)N2CCCC[C@H]2C(=O)O[C@H]([C@H](C)C[C@@H]2CC[C@@H](O)[C@H](OC)C2)CC(=O)[C@H](C)/C=C(\C)[C@@H](O)[C@@H](OC)C(=O)[C@H](C)C[C@H](C)/C=C/C=C/C=C/1C [SIROLIMUS] | Not Active | Not Active | Not Active | Not Active | Not Active | Not Active | Not Active | – | – | – | – | – | – | – | – | – | – | –
2 | CN[C@@H]1[C@H](O)[C@H](NC)[C@H]2O[C@@]3(O)C(=O)C[C@@H](C)O[C@H]3O[C@@H]2[C@H]1O [SPECTINOMYCIN] | Not Active | Not Active | Not Active | Not Active | Not Active | Not Active | Not Active | – | – | – | – | – | – | – | – | – | – | –
3 | Nc1ccc(S(=O)(=O)Nc2ncccn2)cc1 [SULFADIAZINE] | Not Active | Not Active | Not Active | Not Active | Not Active | Not Active | Not Active | – | – | – | – | – | – | – | – | – | – | –
4 | COc1ncnc(NS(=O)(=O)c2ccc(N)cc2)c1OC [SULFADOXINE] | Not Active | Not Active | Not Active | Not Active | Not Active | Not Active | Not Active | – | – | – | – | – | – | – | – | – | – | –
5 | Nc1ccc(S(=O)(=O)Nc2nccs2)cc1 [SULFATHIAZOLE] | Not Active | Not Active | Not Active | Not Active | Not Active | Not Active | Not Active | – | – | – | – | – | – | – | – | – | – | –
6 | C[C@]12CC[C@H]3[C@@H](CCC4=CC(=O)CC[C@@]43C)[C@@H]1CC[C@@H]2O [TESTOSTERONE] | Not Active | Not Active | Not Active | – | Not Active | Not Active | Not Active | 1.93 µM | 0.252 µM | – | – | – | – | – | – | – | – | –
7 | CCS(=O)(=O)CCn1c([N+](=O)[O-])cnc1C [TINIDAZOLE] | Not Active | Not Active | Not Active | Not Active | Not Active | Not Active | Not Active | – | – | – | – | – | – | – | – | – | – | –
8 | C[C@@H]1C[C@H]2[C@@H]3CCC4=CC(=O)C=C[C@]4(C)C3=CC[C@]2(C)[C@H]1C(=O)CN1CCN(c2cc(N3CCCC3)nc(N3CCCC3)n2)CC1 [TIRILAZAD] | – | Not Active | Not Active | Not Active | Not Active | – | Not Active | – | – | Not Active | 22.7 µM | 15.6 µM | – | – | – | – | – | –
9 | NC[C@H]1O[C@H](O[C@H]2[C@H](O)[C@@H](O[C@H]3O[C@H](CO)[C@@H](O)[C@H](N)[C@H]3O)[C@H](N)C[C@@H]2N)[C@H](N)C[C@@H]1O [TOBRAMYCIN] | Not Active | Not Active | Not Active | Not Active | Not Active | Not Active | Not Active | – | – | – | – | – | – | – | – | – | – | –
10 | O=c1n(CCCN2CCN(c3cccc(Cl)c3)CC2)nc2ccccn12 [TRAZODONE] | Not Active | Not Active | Not Active | Not Active | Not Active | Not Active | Not Active | – | – | – | – | – | – | – | – | – | – | –
11 | O=C(O)C(Cl)(Cl)Cl [TRICHLOROACETIC ACID] | Not Active | Not Active | Not Active | Not Active | Not Active | Not Active | Not Active | – | – | – | – | – | – | – | – | – | – | –
12 | COc1ccc(CN2CCNCC2)c(OC)c1OC [TRIMETAZIDINE] | Not Active | Not Active | Not Active | Not Active | Not Active | Not Active | Not Active | – | – | – | – | – | – | – | – | – | – | –
13 | CC(=O)O[C@H]1C[C@@H]2CC[C@@H]3[C@H](CC[C@@]4(C)[C@H]3C[C@H]([N+]3(C)CCCCC3)[C@@H]4OC(C)=O)[C@@]2(C)C[C@@H]1N1CCCCC1.[Br-] [VECURONIUM BROMIDE] | Not Active | Not Active | Not Active | Not Active | Not Active | Not Active | Not Active | – | – | – | – | – | – | – | – | – | – | –
14 | COc1cc(C(=O)NS(=O)(=O)c2ccccc2C)ccc1Cc1cn(C)c2ccc(NC(=O)OC3CCCC3)cc12 [ZAFIRLUKAST] | Not Active | Not Active | Not Active | Not Active | Not Active | Not Active | Not Active | – | – | – | – | – | – | – | – | – | – | –
15 | Cc1cn([C@H]2C[C@H](N=[N+]=[N-])[C@@H](CO)O2)c(=O)[nH]c1=O [ZIDOVUDINE] | Not Active | Not Active | Not Active | Not Active | Not Active | Not Active | Not Active | – | – | – | – | – | – | – | – | – | – | –
16 | STANNOUS FLUORIDE | Not Active | Not Active | Not Active | Not Active | Not Active | Not Active | Not Active | – | – | Not Active | – | – | Not Active | Not Active | Not Active | Not Active | Not Active | Not Active
17 | THIMEROSAL | Not Active | Not Active | Not Active | Not Active | Not Active | Not Active | Not Active | – | – | Not Active | – | – | Not Active | Not Active | Not Active | Not Active | Not Active | Not Active
